Our source for the % of control, % of inhibition and % binding values is ChEMBL document CHEMBL5465560, “Selectivity Literature for EUbOPEN Chemogenomic Library” (2024).

In assay [1] the target is MAP/microtubule affinity-regulating kinase 3 (Homo sapiens) (UniProt P27448). Particulars: at 10 µM.
For assay [2], the target named is T1, Membrane-associated tyrosine- and threonine-specific cdc2-inhibitory kinase (Homo sapiens) (UniProt Q99640).
T1 sequence (whole entry): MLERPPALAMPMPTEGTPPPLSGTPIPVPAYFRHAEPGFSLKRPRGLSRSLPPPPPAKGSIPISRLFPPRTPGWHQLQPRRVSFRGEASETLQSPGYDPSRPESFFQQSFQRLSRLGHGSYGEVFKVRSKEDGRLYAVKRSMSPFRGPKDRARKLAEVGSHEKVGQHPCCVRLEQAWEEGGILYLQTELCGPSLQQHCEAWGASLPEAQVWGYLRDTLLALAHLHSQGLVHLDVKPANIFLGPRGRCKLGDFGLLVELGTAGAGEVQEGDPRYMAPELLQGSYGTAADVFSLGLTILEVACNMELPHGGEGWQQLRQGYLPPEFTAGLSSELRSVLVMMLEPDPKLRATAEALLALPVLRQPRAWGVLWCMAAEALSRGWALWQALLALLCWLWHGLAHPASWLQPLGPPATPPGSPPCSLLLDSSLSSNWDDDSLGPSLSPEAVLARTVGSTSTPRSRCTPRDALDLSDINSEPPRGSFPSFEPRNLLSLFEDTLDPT
To be noted: at 10 µM.

Assay [3] has as its target T2, Rhodopsin kinase GRK1 (Homo sapiens) (UniProt Q15835).
T2 sequence (whole entry): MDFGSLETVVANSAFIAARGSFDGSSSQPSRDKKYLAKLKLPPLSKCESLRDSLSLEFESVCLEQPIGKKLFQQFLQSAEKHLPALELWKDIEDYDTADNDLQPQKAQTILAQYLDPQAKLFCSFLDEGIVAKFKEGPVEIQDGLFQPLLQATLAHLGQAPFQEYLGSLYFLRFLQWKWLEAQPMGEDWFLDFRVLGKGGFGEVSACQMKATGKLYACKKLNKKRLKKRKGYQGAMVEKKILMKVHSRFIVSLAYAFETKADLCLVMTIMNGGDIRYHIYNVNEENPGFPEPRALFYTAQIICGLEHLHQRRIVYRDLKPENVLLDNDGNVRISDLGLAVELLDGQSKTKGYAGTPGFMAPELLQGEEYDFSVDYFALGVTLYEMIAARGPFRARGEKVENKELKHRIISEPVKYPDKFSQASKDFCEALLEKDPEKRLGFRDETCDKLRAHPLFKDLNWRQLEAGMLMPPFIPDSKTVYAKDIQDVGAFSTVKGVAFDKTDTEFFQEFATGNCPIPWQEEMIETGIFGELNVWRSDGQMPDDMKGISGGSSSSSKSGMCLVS
Briefly: Selectivity interaction (Ambit KINOMEscan and KiNATiv profiling in Jurkat cells) EUB0000090b GRK1. The assay is classed as cell-based. To be noted: at 1 µM.

Assay [4] concerns the target Mitogen-activated protein kinase 3 (Homo sapiens, UniProt P27361). Briefly: Selectivity interaction (KinomeScan (DiscoverX)) EUB0000092b MAPK3. Particulars: at 10 µM.
Assay [5] has as its target T3, Mitogen-activated protein kinase kinase kinase 7 (Homo sapiens) (UniProt O43318).
T3 sequence (whole entry): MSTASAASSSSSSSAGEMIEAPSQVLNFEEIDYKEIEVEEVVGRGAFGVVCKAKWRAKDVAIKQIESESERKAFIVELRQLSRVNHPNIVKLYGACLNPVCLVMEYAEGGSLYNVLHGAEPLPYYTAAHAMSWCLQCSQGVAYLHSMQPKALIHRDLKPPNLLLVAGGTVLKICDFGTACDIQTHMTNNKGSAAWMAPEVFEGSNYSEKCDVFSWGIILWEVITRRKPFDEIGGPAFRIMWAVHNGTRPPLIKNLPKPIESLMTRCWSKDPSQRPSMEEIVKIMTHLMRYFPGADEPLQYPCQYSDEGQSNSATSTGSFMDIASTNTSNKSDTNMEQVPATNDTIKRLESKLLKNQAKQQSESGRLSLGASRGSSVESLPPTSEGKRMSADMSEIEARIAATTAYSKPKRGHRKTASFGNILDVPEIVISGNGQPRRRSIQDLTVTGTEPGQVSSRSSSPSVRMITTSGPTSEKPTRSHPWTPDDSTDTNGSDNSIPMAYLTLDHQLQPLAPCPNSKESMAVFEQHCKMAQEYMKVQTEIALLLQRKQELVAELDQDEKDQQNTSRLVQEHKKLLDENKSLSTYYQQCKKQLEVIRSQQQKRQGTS
Briefly: Selectivity interaction (KinomeScan (DiscoverX)) EUB0001049a MAP3K7. To be noted: at 1 µM.

In assay [6] the target is T4, Dual specificity tyrosine-phosphorylation-regulated kinase 4 (Homo sapiens) (UniProt Q9NR20).
T4 sequence (whole entry): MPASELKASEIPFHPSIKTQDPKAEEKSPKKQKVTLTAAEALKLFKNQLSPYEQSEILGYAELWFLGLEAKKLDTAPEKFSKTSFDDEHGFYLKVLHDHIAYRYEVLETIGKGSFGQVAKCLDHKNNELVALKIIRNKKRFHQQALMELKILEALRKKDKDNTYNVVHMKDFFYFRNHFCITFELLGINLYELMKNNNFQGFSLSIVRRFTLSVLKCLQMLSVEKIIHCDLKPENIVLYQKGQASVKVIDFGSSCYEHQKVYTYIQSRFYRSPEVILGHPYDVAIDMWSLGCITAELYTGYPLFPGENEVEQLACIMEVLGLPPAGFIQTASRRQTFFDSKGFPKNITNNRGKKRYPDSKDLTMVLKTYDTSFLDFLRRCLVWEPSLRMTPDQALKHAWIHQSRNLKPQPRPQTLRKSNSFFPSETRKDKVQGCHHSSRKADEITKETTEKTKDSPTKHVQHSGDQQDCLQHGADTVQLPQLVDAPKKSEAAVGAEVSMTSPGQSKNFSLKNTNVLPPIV
Briefly: Selectivity interaction (SelectScreen profiling (Invitrogen)) EUB0000607a DYRK4. To be noted: at 2 µM.

The target of assay [7] is Non-receptor tyrosine-protein kinase TYK2 (Homo sapiens, UniProt P29597). Briefly: Selectivity interaction (KinomeScan (DiscoverX)) EUB0000229b TYK2. Particulars: at 10 µM.
Sequence of Non-receptor tyrosine-protein kinase TYK2 (P29597 whole entry): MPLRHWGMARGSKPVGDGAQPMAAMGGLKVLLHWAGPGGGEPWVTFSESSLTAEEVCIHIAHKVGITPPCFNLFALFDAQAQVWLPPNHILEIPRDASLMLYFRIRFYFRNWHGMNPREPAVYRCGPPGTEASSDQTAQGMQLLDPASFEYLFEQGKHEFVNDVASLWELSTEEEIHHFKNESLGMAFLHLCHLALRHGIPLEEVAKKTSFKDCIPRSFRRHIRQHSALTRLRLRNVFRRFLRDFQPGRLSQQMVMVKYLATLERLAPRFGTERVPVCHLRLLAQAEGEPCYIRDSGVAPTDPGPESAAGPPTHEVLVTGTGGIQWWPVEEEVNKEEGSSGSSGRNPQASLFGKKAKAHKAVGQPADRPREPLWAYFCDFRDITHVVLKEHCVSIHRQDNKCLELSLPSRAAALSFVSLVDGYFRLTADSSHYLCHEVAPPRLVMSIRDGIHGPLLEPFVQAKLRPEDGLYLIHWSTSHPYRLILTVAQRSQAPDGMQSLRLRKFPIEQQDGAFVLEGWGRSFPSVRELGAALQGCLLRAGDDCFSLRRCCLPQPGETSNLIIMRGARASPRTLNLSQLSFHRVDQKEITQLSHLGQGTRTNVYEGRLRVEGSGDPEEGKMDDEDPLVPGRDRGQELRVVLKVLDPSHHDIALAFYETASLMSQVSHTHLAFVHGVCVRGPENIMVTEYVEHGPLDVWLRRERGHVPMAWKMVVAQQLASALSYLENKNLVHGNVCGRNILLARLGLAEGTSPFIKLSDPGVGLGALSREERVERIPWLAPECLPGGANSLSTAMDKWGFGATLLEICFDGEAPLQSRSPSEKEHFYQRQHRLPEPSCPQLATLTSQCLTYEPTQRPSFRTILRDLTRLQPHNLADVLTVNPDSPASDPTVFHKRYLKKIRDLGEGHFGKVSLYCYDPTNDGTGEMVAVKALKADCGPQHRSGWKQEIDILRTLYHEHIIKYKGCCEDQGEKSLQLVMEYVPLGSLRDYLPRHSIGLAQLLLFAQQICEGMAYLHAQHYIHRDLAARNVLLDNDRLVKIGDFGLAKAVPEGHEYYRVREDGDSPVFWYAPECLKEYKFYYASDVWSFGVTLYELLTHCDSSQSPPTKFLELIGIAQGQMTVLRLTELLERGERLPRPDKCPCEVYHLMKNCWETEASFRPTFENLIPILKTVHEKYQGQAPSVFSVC

Sequence of Mitogen-activated protein kinase 3 (P27361 whole entry): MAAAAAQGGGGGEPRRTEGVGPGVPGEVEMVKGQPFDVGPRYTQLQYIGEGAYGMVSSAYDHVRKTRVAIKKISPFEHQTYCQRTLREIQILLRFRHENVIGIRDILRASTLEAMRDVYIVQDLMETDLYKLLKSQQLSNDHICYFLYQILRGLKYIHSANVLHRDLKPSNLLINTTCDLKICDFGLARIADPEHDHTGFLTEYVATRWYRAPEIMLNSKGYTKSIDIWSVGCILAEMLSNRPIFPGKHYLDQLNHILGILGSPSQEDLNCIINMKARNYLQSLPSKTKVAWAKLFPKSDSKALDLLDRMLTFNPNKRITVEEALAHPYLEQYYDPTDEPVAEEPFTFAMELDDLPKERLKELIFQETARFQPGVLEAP
Sequence of MAP/microtubule affinity-regulating kinase 3 (Homo sapiens) (P27448 whole entry, looked up): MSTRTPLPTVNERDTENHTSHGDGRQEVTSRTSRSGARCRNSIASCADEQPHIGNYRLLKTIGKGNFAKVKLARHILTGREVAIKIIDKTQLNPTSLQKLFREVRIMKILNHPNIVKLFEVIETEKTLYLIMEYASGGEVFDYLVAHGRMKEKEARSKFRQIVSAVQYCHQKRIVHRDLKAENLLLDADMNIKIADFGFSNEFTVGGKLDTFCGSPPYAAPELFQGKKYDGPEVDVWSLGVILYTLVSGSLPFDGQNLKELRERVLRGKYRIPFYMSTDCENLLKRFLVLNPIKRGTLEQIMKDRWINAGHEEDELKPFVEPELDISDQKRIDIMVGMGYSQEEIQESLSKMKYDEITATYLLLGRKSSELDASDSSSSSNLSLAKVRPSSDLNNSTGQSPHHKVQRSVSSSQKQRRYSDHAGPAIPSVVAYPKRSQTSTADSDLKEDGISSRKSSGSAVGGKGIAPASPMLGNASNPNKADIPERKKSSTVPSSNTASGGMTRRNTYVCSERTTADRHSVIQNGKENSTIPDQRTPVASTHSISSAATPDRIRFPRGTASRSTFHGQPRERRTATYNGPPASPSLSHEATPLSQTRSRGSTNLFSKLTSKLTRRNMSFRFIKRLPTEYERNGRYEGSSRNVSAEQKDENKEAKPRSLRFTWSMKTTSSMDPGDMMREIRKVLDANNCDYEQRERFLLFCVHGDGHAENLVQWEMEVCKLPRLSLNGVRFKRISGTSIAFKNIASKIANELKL

In the case of `Cc1cc([C@@H](C)Nc2ccccc2C(=O)O)c2nc(N3CCOCC3)cc(=O)n2c1` [AZD-6482], the % of control in assay [1] is 89%; in assay [2], 100%.
In turn, `CN(C)C/C=C/C(=O)Nc1ccc(C(=O)N2CCCC(Nc3ncc(Cl)c(-c4c[nH]c5ccccc45)n3)C2)cc1` (configuration not stated) gave a % of control in assay [3] of 57%.
`CCC(=O)N1CCN(c2ccc(-n3c(=O)ccc4cnc5ccc(-c6cnc7ccccc7c6)cc5c43)cc2C(F)(F)F)CC1`: the % of control in assay [4] stood at 91%.
In the case of `COc1cc(Nc2nc(C)cc(-c3cnn4nc(OC)ccc34)n2)cc(C(F)(F)F)c1`, the % of control in assay [5] amounted to 73%.
Molecule `CNC(=O)Nc1ccc(-c2nc(N3CC4CCC(C3)O4)c3cnn(C4CCC5(CC4)OCCO5)c3n2)cc1` returned a % of inhibition in assay [6] of 4%.
In the case of `COc1cc(N(C)c2ccnc3ccc(C(F)(F)F)cc23)cc(OC)c1OC`, the % binding in assay [7] was determined as 99%.
